Like-named read-outs stand apart in the source and are kept apart here.
Legend:
[1] = molecular target: T1, beta-lactamase from Staphylococcus aureus 01A400 (Staphylococcus aureus, UniProt P00807); assay: Inhibition of ampicillin hydrolysis by cell-free beta-lactamase (microiodometric); assay type: biochemical
T1 construct: Cell-free extracts were prepared by sonic treatment; endogenous in cells; host or cells: Staphylococcus aureus strain 01A400, induced with penicillin G; cell-free extract by French press
Procedure: (§1) The compounds of the present invention are thus evaluated in vitro by the ability of penicillanic acid 1,1-dioxide derivatives of the formula (IV) to inhibit the hydrolysis of beta-lactam antibiotics by beta-lactamase enzymes. The hydrolysis of ampicillin was determined by the microiodometric method of Novick [Biochem, J. 83, 236 (1962)]. Conditions for this assay are 0.5 M potassium phosphate, pH 6.5 and 37° C. Reactions were initiated by the addition of the cell-free beta-lactamase, except in the case of preincubation experiments in which the inhibitor and enzyme were incubated together in the assay mixture for 10 minutes before initiation of the reaction by addition of substrate. With the cellfree extracts of Staphylococcus aureus, Escherichia coli, Klebsiella pneumoniae and Pseudomonas aeruginosa, the substrate was ampicillin at 33 micro M (13 microg./ml). Typical specific activities of the beta-lactamase preparations were, respectively, 6,019, 88,970, 260 and 76 micromol/hr. per mg. of protein.
(§2) Cell-free extracts were prepared by sonic treatment (using three 30-s bursts at 4° C. except for S. aureus, which was broken with a French press) of cultures grown in brain heart infusion on a rotary shaker incubator. For the S. aureus, P. aeruginose, and E. cloacae strains, de novo synthesis of beta-lactamase was induced by growing a log-phase culture in the presence of a sublethal concentration of penicillin G at 100, 1,000, and 300 microg./ml, respectively, for 2.5 hr.

[2] = system: beta-lactamase from Klebsiella pneumoniae 53A129; assay: as above; assay type: biochemical; conditions: ampicillin 33 μM, pH 6.5, 37° C.
Procedure: as §1, §2

[3] = system: beta-lactamase from Escherichia coli 51A129; assay: as above; assay type: biochemical; conditions: ampicillin 33 μM, pH 6.5, 37° C.
Procedure: as §1, §2

[4] = molecular target: beta-lactamase from Pseudomonas aeruginosa 52A104 (Pseudomonas aeruginosa, UniProt P24735); assay: as above; assay type: biochemical; conditions: ampicillin 33 μM, pH 6.5, 37° C., read-out: % Inhibition Beta-Lactam Hydrolysis
Procedure: as §1, §2

[5] = system: Serratia marcescens 63A095; assay: Minimum inhibitory concentration on BHI agar; assay type: cell-based; conditions: 18 hrs., 37° C., inhibitor alone or 1:1 mixture with ampicillin
Procedure: (§3) The procedure which follows is the one recommended by the International Collaborative Study on Antibiotic Sensitivity Testing [Ericcson and Sherris, Acta. Pathologica et Microbiologia Scandinav, Supp. 217, Sections A and B: 64-68 (1971)], and employs brain heart infusion (BHI) agar and the inocula replicating device. Overnight growth tubes are diluted 100 fold for use as the standard inoculum (20,000-10,000 cells in approximately 0.002 ml are placed on the agar surface; 20 ml of BHI agar/dish). Twelve 2 fold dilutions of the test compound are employed, with initial concentration of the test drug being 200 mcg/ml. Single colonies are disregarded when reading tubes after 18 hrs. at 37° C.
(§4) These MIC's are then compared with the MIC values obtained with a combination of ampicillin and the beta-lactamase inhibitor. […] The MIC values of combinations are measured using the method described by Barry and Sabath in "Manual of Clinical Microbiology", edited by Lenette, Spaulding and Truant, 2nd Edition, 1974, American Society for Microbiology.

[6] = system: Escherichia coli 51A266; assay: Minimum inhibitory concentration on BHI agar; assay type: cell-based; conditions: 18 hrs., 37° C., inhibitor alone or 1:1 mixture with ampicillin
Procedure: as §3, §4

[7] = system: Pseudomonas aeruginosa 52A104; assay: Minimum inhibitory concentration on BHI agar; assay type: cell-based; conditions: 18 hrs., 37° C., inhibitor alone or 1:1 mixture with ampicillin
Procedure: as §3, §4

[8] = system: Staphylococcus aureus 01A005; assay: Minimum inhibitory concentration on BHI agar; assay type: cell-based; conditions: 18 hrs., 37° C., inhibitor alone or 1:1 mixture with ampicillin
Procedure: as §3, §4

[9] = system: Staphylococcus aureus 01A400; assay: Minimum inhibitory concentration on BHI agar; assay type: cell-based; conditions: 18 hrs., 37° C., inhibitor alone or 1:1 mixture with ampicillin
Procedure: as §3, §4

[10] = system: Enterobacter cloacae 67B009; assay: Minimum inhibitory concentration on BHI agar; assay type: cell-based; conditions: 18 hrs., 37° C., inhibitor alone or 1:1 mixture with ampicillin
Procedure: as §3, §4

[11] = system: Citrobacter diversus 70C031; assay: Minimum inhibitory concentration on BHI agar; assay type: cell-based; conditions: 18 hrs., 37° C., inhibitor alone or 1:1 mixture with ampicillin
Procedure: as §3, §4

[12] = system: Klebsiella pneumoniae 53A079; assay: Minimum inhibitory concentration on BHI agar; assay type: cell-based; conditions: 18 hrs., 37° C., inhibitor alone or 1:1 mixture with ampicillin
Procedure: as §3, §4

[13] = system: Proteus morgani 57G001; assay: Minimum inhibitory concentration on BHI agar; assay type: cell-based; conditions: 18 hrs., 37° C., inhibitor alone or 1:1 mixture with ampicillin
Procedure: as §3, §4

[14] = pH 6.5, read-out: % Inhibition Beta-Lactam Hydrolysis

T1 sequence (P00807 25-281): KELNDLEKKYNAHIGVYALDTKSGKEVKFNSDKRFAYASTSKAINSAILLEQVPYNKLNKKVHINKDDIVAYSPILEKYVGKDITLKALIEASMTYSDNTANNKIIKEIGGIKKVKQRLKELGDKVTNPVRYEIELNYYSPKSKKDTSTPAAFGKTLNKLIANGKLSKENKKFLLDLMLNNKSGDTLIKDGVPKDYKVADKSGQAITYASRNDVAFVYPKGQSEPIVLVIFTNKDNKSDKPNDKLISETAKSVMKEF
Sequence of beta-lactamase from Pseudomonas aeruginosa 52A104 (P24735 27-397): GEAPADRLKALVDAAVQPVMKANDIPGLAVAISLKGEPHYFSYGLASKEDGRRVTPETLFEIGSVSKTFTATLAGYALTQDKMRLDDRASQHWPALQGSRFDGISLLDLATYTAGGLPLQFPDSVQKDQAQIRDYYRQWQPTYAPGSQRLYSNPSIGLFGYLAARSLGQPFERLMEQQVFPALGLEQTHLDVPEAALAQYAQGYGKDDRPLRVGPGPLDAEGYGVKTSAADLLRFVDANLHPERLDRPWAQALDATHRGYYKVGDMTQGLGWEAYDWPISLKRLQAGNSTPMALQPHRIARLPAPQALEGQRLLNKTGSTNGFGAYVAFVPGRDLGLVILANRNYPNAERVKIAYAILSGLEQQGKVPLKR

## CC1(C)[C@H](C(=O)O)N2C(=O)[C@@H](CO)[C@H]2S1(=O)=O [A, 6-beta-(Hydroxymethyl)pencillanic acid 1,1-dioxide]
[1]; inhibitor 1.0 μM, ampicillin 33 μM, pH 6.5, 37° C., read-out: % Inhibition Beta-Lactam Hydrolysis
  inhibition at 1 µM: 39.3%
[1]; inhibitor 16.5 μM, ampicillin 33 μM, pH 6.5, 37° C., read-out: % Inhibition Beta-Lactam Hydrolysis
  inhibition at 16.5 µM: 78.8%
[1]; inhibitor 66 μM, ampicillin 33 μM, pH 6.5, 37° C., read-out: % Inhibition Beta-Lactam Hydrolysis
  inhibition at 66 µM: 98.3%
[2]; inhibitor 1.0 μM
  % Inhibition Beta-Lactam Hydrolysis: 81.2%
[2]; inhibitor 16.5 μM
  % Inhibition Beta-Lactam Hydrolysis: 100%
[2]; inhibitor 66 μM
  % Inhibition Beta-Lactam Hydrolysis: 100%
[3]; inhibitor 0.67 μM
  % Inhibition Beta-Lactam Hydrolysis: 92.1%
[3]; inhibitor 1.0 μM
  % Inhibition Beta-Lactam Hydrolysis: 95.7%
[3]; inhibitor 16.5 μM
  % Inhibition Beta-Lactam Hydrolysis: 100%
[3]; inhibitor 66 μM
  % Inhibition Beta-Lactam Hydrolysis: 100%

## CC1(C)[C@H](C(=O)O)N2C(=O)C[C@H]2S1(=O)=O [B, Penicillanic acid 1,1-dioxide]
[1]; [14]
  inhibition at 1 µM: 0%
  inhibition at 16.5 µM: 95%
  inhibition at 66 µM: 100%
[4]; inhibitor 16.5 μM
  inhibition at 16.5 µM: 5%
[4]; inhibitor 66 μM
  inhibition at 66 µM: 27.5%
[2]; inhibitor 16.5 μM
  % Inhibition Beta-Lactam Hydrolysis: 100%
[2]; inhibitor 66 μM
  % Inhibition Beta-Lactam Hydrolysis: 100%
[3]; inhibitor 1.0 μM
  % Inhibition Beta-Lactam Hydrolysis: 97.0%
[3]; inhibitor 16.5 μM
  % Inhibition Beta-Lactam Hydrolysis: 100%
[3]; inhibitor 66 μM
  % Inhibition Beta-Lactam Hydrolysis: 100%
[5]
  MIC: 200 µg/mL
[6]
  MIC: 25 µg/mL
[7]
  MIC: > 200 µg/mL
[8]
  MIC: 100 µg/mL
[9]
  MIC: 200 µg/mL
[10]
  MIC: 100 µg/mL
[11]
  MIC: 200 µg/mL
[12]
  MIC: 50 µg/mL
[13]
  MIC: 200 µg/mL
